≈ marks a conversion by molar mass, not a printed value. Values belong to the compound of their own block, whether it stands above or below them. Calls of active or inactive are those of the source. The rule behind the calls is not given here.
Assays:
[1] = Inhibition of mouse KHK-A
Mus musculus [2] = assay: Reduction in fructose level in 5 hrs fasted C57B6 mouse assessed as maximum effect at 100 mg/kg administered via oral gavage measured upto 180 mins by oral fructose challenge assay; type: functional, organism-based
[3] = Inhibition of mouse KHK-C
[4] = Cmax in rat at 2 mg/kg, po measured after 12 hrs; type: ADME, organism-based; parameters: time 12 hrs, dose 2 mg/kg, route po; conditions: in vivo
[5] = Half life in dog at 2 mg/kg, po; type: ADME, organism-based, Canis lupus familiaris; conditions: in vivo
[6] = Drug distribution in mouse kidney at 30 mg/kg, po measured at 180 mins; type: ADME, organism-based; conditions: in vivo, 3 h
[7] = Thermodynamic solubility of the compound […] at pH 7.4; type: physicochemical; conditions: read-out: Therm_solubility
[8] = Clearance in rat hepatocytes measured per 10^6 cells; type: ADME, cell-based, Hepatocyte; conditions: read-out: CLH
[9] = AUC in dog at 2 mg/kg, po; type: ADME, organism-based, Canis lupus familiaris; parameters: dose 2 mg/kg, route po; conditions: in vivo
[10] = Clearance in rat at 1 mg/kg, iv measured after 12 hrs; type: ADME, organism-based; conditions: in vivo
[11] = Permeability in MDCK cells assessed as drug transport measured over 1 hr in presence of P-gp; type: ADME, cell-based, Canis lupus familiaris; conditions: dog
[12] = Tmax in rat at 2 mg/kg, po measured after 12 hrs; type: ADME, organism-based; conditions: in vivo
[13] = Unbound fraction in dog plasma at 1 uM; type: ADME, cell-free, Canis lupus familiaris
[14] = Cmax in dog at 1 mg/kg, iv; type: ADME, organism-based, Canis lupus familiaris; parameters: dose 1 mg/kg, route iv; conditions: in vivo
[15] = Half life in dog at 1 mg/kg, iv; type: ADME, organism-based, Canis lupus familiaris; conditions: in vivo
[16] = AUC in dog at 1 mg/kg, iv; type: ADME, organism-based, Canis lupus familiaris; parameters: dose 1 mg/kg, route iv; conditions: in vivo
[17] = Unbound fraction in rat plasma at 1 uM; type: ADME, cell-free
[18] = Volume of distribution in dog at 1 mg/kg, iv; type: ADME, organism-based, Canis lupus familiaris; conditions: in vivo
Ketohexokinase [19] = target: T1, Ketohexokinase (Homo sapiens, UniProt P50053); assay: Inhibition of KHK in human HepG2 cells incubated for 3 hrs by Rapidfire MS analysis; type: cell-based
T1 sequence (P50053 whole entry): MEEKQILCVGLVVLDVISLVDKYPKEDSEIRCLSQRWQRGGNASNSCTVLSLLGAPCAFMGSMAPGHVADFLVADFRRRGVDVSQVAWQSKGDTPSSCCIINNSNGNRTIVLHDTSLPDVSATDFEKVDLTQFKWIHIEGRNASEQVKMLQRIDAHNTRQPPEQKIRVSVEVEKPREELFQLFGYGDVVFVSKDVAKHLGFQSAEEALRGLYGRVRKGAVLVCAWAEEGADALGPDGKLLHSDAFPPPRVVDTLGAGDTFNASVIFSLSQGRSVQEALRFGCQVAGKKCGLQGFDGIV

[20] = Drug distribution in mouse heart at 30 mg/kg, po measured at 180 mins; type: ADME, organism-based; conditions: in vivo, 3 h
[21] = Volume of distribution in rat at 1 mg/kg, iv measured after 12 hrs; type: ADME, organism-based; conditions: in vivo
[22] = Metabolic stability in mouse liver microsomes assessed as compound degradation measured after 30 mins; type: ADME, Microsome; conditions: read-out: Drug degradation
Ketohexokinase [23] = target: T1, Ketohexokinase; assay: Inhibition of human KHK-C preincubated for 15 mins followed by substrate addition and measured after 20 mins in presence of ATP by Rapidfire MS analysis
[24] = Metabolic stability in dog liver microsomes assessed as compound degradation measured after 30 mins; type: ADME, Canis lupus familiaris, Microsome; conditions: read-out: Drug degradation
[25] = Metabolic stability in human liver microsomes assessed as compound degradation measured after 30 mins; type: ADME, Microsome; conditions: read-out: Drug degradation
[26] = AUC in rat at 1 mg/kg, iv measured after 12 hrs; type: ADME, organism-based; parameters: time 12 hrs, dose 1 mg/kg, route iv; conditions: in vivo
[27] = Unbound fraction in mouse plasma at 1 uM; type: ADME, cell-free
[28] = AUC in rat at 2 mg/kg, po measured after 12 hrs; type: ADME, organism-based; parameters: time 12 hrs, dose 2 mg/kg, route po; conditions: in vivo
[29] = Tmax in dog at 2 mg/kg, po; type: ADME, organism-based, Canis lupus familiaris; conditions: in vivo
[30] = Oral bioavailability in dog at 2 mg/kg; type: ADME, organism-based, Canis lupus familiaris; conditions: in vivo
[31] = Unbound fraction in human plasma at 1 uM; type: ADME, cell-free
[32] = Half life in rat at 1 mg/kg, iv measured after 12 hrs; type: ADME, organism-based; conditions: in vivo
Mus musculus [33] = assay: Reduction in fructose level in 5 hrs fasted C57B6 mouse by measuring pharmacodynamic response administered via oral gavage for 30 mins followed by oral fructose challenge and measured upto 180 mins by oral fructose tolerance test; type: functional; conditions: dose 30-100 mg/kg, time […]
[34] = Metabolic stability in rat liver microsomes assessed as compound degradation measured after 30 mins; type: ADME, Microsome; conditions: read-out: Drug degradation
[35] = Clearance in dog hepatocytes measured per 10^6 cells; type: ADME, cell-based, Canis lupus familiaris, Hepatocyte; conditions: read-out: CLH
Hepatocyte = assay: Cytotoxicity against rat Primary hepatocyte; type: toxicity, cell-based; conditions: hepatocytes
[36] = Oral bioavailability in rat at 2 mg/kg measured after 12 hrs; type: ADME, organism-based; conditions: in vivo
[37] = Half life in rat at 2 mg/kg, po measured after 12 hrs; type: ADME, organism-based; conditions: in vivo
[38] = Clearance in human hepatocytes measured per 10^6 cells; type: ADME, cell-based, Hepatocyte; conditions: read-out: CLH
[39] = Cmax in dog at 2 mg/kg, po; type: ADME, organism-based, Canis lupus familiaris; parameters: dose 2 mg/kg, route po; conditions: in vivo
[40] = Clearance in dog at 1 mg/kg, iv; type: ADME, organism-based, Canis lupus familiaris; conditions: in vivo
[41] = Cmax in rat at 1 mg/kg, iv measured after 12 hrs; type: ADME, organism-based; parameters: dose 1 mg/kg, time 12 hrs, route iv; conditions: in vivo
[42] = Drug distribution in mouse liver at 30 mg/kg, po measured at 180 mins; type: ADME, organism-based; conditions: in vivo, 3 h
[43] = AUC in rat at 3 mg/kg, po measured after 12 hrs; type: ADME, organism-based; parameters: dose 3 mg/kg, time 12 hrs, route po; conditions: in vivo
[44] = Tmax in rat at 3 mg/kg, po measured after 12 hrs; type: ADME, organism-based; conditions: in vivo
[45] = Oral bioavailability in rat at 3 mg/kg measured after 12 hrs; type: ADME, organism-based; conditions: in vivo
[46] = Half life in rat at 3 mg/kg, po measured after 12 hrs; type: ADME, organism-based; conditions: in vivo
[47] = Cmax in rat at 3 mg/kg, po measured after 12 hrs; type: ADME, organism-based; parameters: dose 3 mg/kg, time 12 hrs, route po; conditions: in vivo
[48] = Cmax in dog at 3 mg/kg, po; type: ADME, organism-based, Canis lupus familiaris; parameters: dose 3 mg/kg, route po; conditions: in vivo
[49] = Oral bioavailability in dog at 3 mg/kg; type: ADME, organism-based, Canis lupus familiaris; conditions: in vivo
[50] = AUC in dog at 3 mg/kg, po; type: ADME, organism-based, Canis lupus familiaris; parameters: dose 3 mg/kg, route po; conditions: in vivo
[51] = Tmax in dog at 3 mg/kg, po; type: ADME, organism-based, Canis lupus familiaris; conditions: in vivo
[52] = Half life in dog at 3 mg/kg, po; type: ADME, organism-based, Canis lupus familiaris; conditions: in vivo

IC50 [1]: 30 nM | IC50 [3]: 20 nM
Compound: C[C@H]1CCN1c1nc(N2C[C@@H]3[C@@H](CC(=O)O)[C@@H]3C2)cc(C(F)(F)F)n1 [PF-06835919]
Activity (Mus musculus [2]): Active

Cmax [4]: 717 nM | half-life [5]: 37 h | Drug uptake [6]: Active | solubility thermodynamic [7]: 520 µg/mL (≈ 1270 µM) | hepatocyte CLint [8]: 2.2 µL/min/1e6 cells | AUC [9]: 23.2 µM·h | IC50 [1]: 14 nM | clearance [10]: 6 mL/min/kg | Drug transport [11]: 4.4% | Tmax [12]: 4.7 h | fraction unbound at 1 µM [13]: 0.24 | Cmax [14]: 3000 nM | half-life [15]: 28 h | AUC [16]: 12.9 µM·h | fraction unbound at 1 µM [17]: 0.18 | Vd [18]: 7.8 L/kg | IC50 (Ketohexokinase [19]): 41 nM | Drug uptake [20]: Active | Vd [21]: 6.5 L/kg | metabolised at 0.5 h [22]: 17% | IC50 (Ketohexokinase [23]): 20 nM | metabolised at 0.5 h [24]: 28% | metabolised at 0.5 h [25]: 0% | AUC at 12 h [26]: 7.06 µM·h | fraction unbound at 1 µM [27]: 0.15 | AUC at 12 h [28]: 11.6 µM·h | Tmax [29]: 1.7 h | bioavailability [30]: 87% | fraction unbound at 1 µM [31]: 0.15 | half-life [32]: 13 h | metabolised at 0.5 h [34]: 18% | hepatocyte CLint [35]: < 1.8 µL/min/1e6 cells | bioavailability [36]: 83% | half-life [37]: 13 h | hepatocyte CLint [38]: < 1.8 µL/min/1e6 cells | Cmax [39]: 657 nM | clearance [40]: 3 mL/min/kg | Cmax [41]: 942 nM | Drug uptake [42]: Active
Compound: C[C@H]1CCN1c1nc(-c2cnn(CC(=O)N3CCNCC3)c2)cc(C(F)(F)F)n1 [LY-3522348]
Activity (Mus musculus [33]): Dose-Dependent Effect | LC20 (Hepatocyte): > 50000 nM

solubility thermodynamic [7]: 39 µg/mL (≈ 95.5 µM) | hepatocyte CLint [8]: 12 µL/min/1e6 cells | AUC at 12 h [43]: 5.09 µM·h | IC50 [1]: 12 nM | clearance [10]: 16 mL/min/kg | Drug transport [11]: 15% | Cmax [14]: 2340 nM | half-life [15]: 5.2 h | AUC [16]: 9.04 µM·h | Vd [18]: 1.4 L/kg | IC50 (Ketohexokinase [19]): 84 nM | Vd [21]: 2.9 L/kg | metabolised at 0.5 h [22]: 19% | Tmax [44]: 1.2 h | metabolised at 0.5 h [24]: 7% | metabolised at 0.5 h [25]: 4% | bioavailability [45]: 62% | AUC at 12 h [26]: 2.62 µM·h | half-life [32]: 2.2 h | half-life [46]: 3 h | metabolised at 0.5 h [34]: 21% | hepatocyte CLint [35]: 3.2 µL/min/1e6 cells | Cmax [47]: 827 nM | IC50 [3]: 28 nM | hepatocyte CLint [38]: 2.8 µL/min/1e6 cells | clearance [40]: 5 mL/min/kg | Cmax [41]: 1910 nM
Compound: C[C@H]1CCN1c1nc(-c2cnn(CC(=O)NCCO)c2)cc(C(F)(F)F)c1C#N
LC20 (Hepatocyte): > 50000 nM

Cmax [48]: 609 nM | solubility thermodynamic [7]: 750 µg/mL (≈ 1960 µM) | hepatocyte CLint [8]: < 1.8 µL/min/1e6 cells | AUC at 12 h [43]: 1.95 µM·h | IC50 [1]: 56 nM | clearance [10]: 56 mL/min/kg | Drug transport [11]: 3.2% | Cmax [14]: 2940 nM | half-life [15]: 5 h | AUC [16]: 1.97 µM·h | Vd [18]: 8.4 L/kg | bioavailability [49]: 100% | Vd [21]: 17 L/kg | metabolised at 0.5 h [22]: 13% | Tmax [44]: 1.7 h | metabolised at 0.5 h [24]: 7% | metabolised at 0.5 h [25]: 3% | bioavailability [45]: 95% | AUC at 12 h [26]: 0.69 µM·h | half-life [32]: 4.3 h | half-life [46]: 5 h | metabolised at 0.5 h [34]: 0% | hepatocyte CLint [35]: 3.4 µL/min/1e6 cells | AUC [50]: 10.3 µM·h | Tmax [51]: 2.3 h | Cmax [47]: 424 nM | IC50 [3]: 177 nM | hepatocyte CLint [38]: 1.8 µL/min/1e6 cells | clearance [40]: 23 mL/min/kg | Cmax [41]: 310 nM | half-life [52]: 10 h
Compound: OC[C@H]1CCN1c1nc(-c2cnn(C3CCNCC3)c2)cc(C(F)(F)F)n1
LC20 (Hepatocyte): > 50000 nM
